Test system: HeLa (HER2-negative cervical cancer cell line)
Assay: antiproliferative effect, HeLa
Assay type: cell-based
Conditions: Homo sapiens, 72 hours
Method: The antiproliferative effects were measured after treating Compounds 1 to 22 for 72 hours on HCT15 (HER2-positive colorectal cancer cell line), NCI-N87 (HER2-positive gastric cancer cell line), T47D (HER2-negative breast cancer cell line), and HeLa (HER2-negative cervical cancer cell line). As a result, strong antiproliferative effects were generally observed in the NCI-N87 cell line (Table 2).
The antiproliferative effects of the candidate compound, resulting from HER2 inhibition, were evaluated. Specifically, to confirm the anticancer effects of the candidate compound, cancer cells were seeded at a density of 10^4 cells/well in a 96-well cell culture plate for 20 hours. The cells were starved in serum-free media for 4 hours, followed by replacement with media containing the compound at specified concentrations. The cells were then incubated for 72 hours under conditions of 5% CO2 at 37 °C. Cell viability was determined by adding 5 μL of EZ-CytoX to each well and measuring absorbance at 450 nm. The measurements were performed using an ELISA Microplate Reader (VersaMax, Molecular Devices).

CC(=O)N1N=C(c2cccc(O)c2)CC1c1ccc(Cl)cc1 (stereo not shown) [Compound 15, 1-[5-(4-Chlorophenyl)-3-(3-hydroxyphenyl)-4,5-dihydropyrazol-1-yl]-ethanone]
IC50: 16.92 ± 0.1 µM

From patent US20260373119A1, “NOVEL COMPOUND, AND COMPOSITION FOR PREVENTING OR TREATING HER2-POSITIVE CANCER, COMPRISING SAME” (EWHA UNIVERSITY - INDUSTRY COLLABORATION FOUNDATION, priority 2022, published 2026)
